# In US12012417B2, “N-substituted tetrahydrothienopyridine derivatives and uses thereof” (NOVARTIS AG, priority 2018, dated 2024):
# Key:
# [1] = test system: Dengue 1 virus MY97-10245; assay: High-content imaging cell-based flavivirus immunodetection (HCl-CFI) assay, Dengue 1; conditions: Dengue virus, A549, 48 h, read-out: Dengue 1 virus MY97-10245 in A549 using HCl [Inhibitor/IC50] Qualified AC50
# [2] = test system: Dengue 2 virus MY97-10340; assay: High-content imaging cell-based flavivirus immunodetection (HCl-CFI) assay, Dengue 2; conditions: Dengue virus, A549, 48 h, read-out: Dengue 2 virus MY97-10340 in A549 using HCl [Inhibitor/IC50] Qualified AC50, A549 cells, MOI 0.3, 48 h, viral E protein expression
# Protocol: High-Content Imaging Cell-Based Flavivirus Immunodetection (HCl-CFI) Assay
# A549 cells (7×10^3 cells per well) in a 384-well plate were infected with the DENV-2 (MY97-10340) strain at an MOI of 0.3. The cells were then treated with 3-fold, 10-point serial dilutions of test compound. After 48 h, the cells were fixed with paraformadehyde, and the viral E protein detected with 4G2 antibody labeled with Dylight™ 488 (GenScript). Cell nuclei were stained with Draq5 (Pierce/Thermo), and images were taken on the Opera imaging system (Perkin Elmer). A dose-response curve was plotted to calculate the effective concentration of compound needed to reduce expression of E protein by 50% (EC50) using GraphPad Prism.
# The resulted EC50 values are summarized in Table 1 below: ±≥1 μM; 1 μM>++≥0.1 μM; 0.1 μm>+++
# [3] = test system: Dengue 3 virus MY05-34640-WT-C6/36; assay: High-content imaging cell-based flavivirus immunodetection (HCl-CFI) assay, Dengue 3; conditions: Dengue virus, A549, 48 h, read-out: Dengue 3 virus MY05-34640-WT-C6/36 in A549 using HCl [Inhibitor/IC50] Qualified AC50
# [4] = test system: Dengue 4 virus MY01-22713; assay: High-content imaging cell-based flavivirus immunodetection (HCl-CFI) assay, Dengue 4; conditions: Dengue virus, A549, 48 h, read-out: Dengue 4 virus MY01-22713 in A549 using HCl [Inhibitor/IC50] Qualified AC50, A549 cells, 48 h, viral E protein expression
Compound,EC50 [1] [µM],EC50 [2] [µM],EC50 [3] [µM],EC50 [4] [µM]
"COc1cc(S(N)(=O)=O)ccc1CC(=O)Nc1sc2c(c1C#N)CN(CC1CCCCC1)CC2 [Example 19, N-(3-cyano-5-(cyclohexylmethyl)-4,5,6,7-tetrahydrothieno[3,2-c]pyridin-2-yl)-2-(2-methoxy-4-sulfamoylphenyl)acetamide]",< 0.1,< 0.1,< 0.1,< 0.1
"N#Cc1c(NC(=O)Cc2ccc3c(c2)CNC3)sc2c1CN(CC1CCCCC1)CC2 [Example 20, N-(3-cyano-5-(cyclohexylmethyl)-4,5,6,7-tetrahydrothieno[3,2-c]pyridin-2-yl)-2-(isoindolin-5-yl)acetamide]",> 1,0.1 to 1,> 1,> 1
"CCOc1cc(CC(=O)Nc2sc3c(c2C#N)CN(Cc2cccc(F)c2)CC3)ccc1S(N)(=O)=O [Example 21, N-(3-cyano-5-(3-fluorobenzyl)-4,5,6,7-tetrahydrothieno[3,2-c]pyridin-2-yl)-2-(3-ethoxy-4-sulfamoylphenyl)acetamide]",< 0.1,< 0.1,< 0.1,< 0.1
"COc1cc(CC(=O)Nc2sc3c(c2C#N)CN(Cc2cccc(F)c2)CC3)ccc1S(N)(=O)=O [Example 22, N-(3-cyano-5-(3-fluorobenzyl)-4,5,6,7-tetrahydrothieno[3,2-c]pyridin-2-yl)-2-(3-methoxy-4-sulfamoylphenyl)acetamide]",0.1 to 1,< 0.1,< 0.1,< 0.1
"N#Cc1c(NC(=O)Cc2ccc3c(c2)CNS3(=O)=O)sc2c1CN(Cc1cccc(F)c1)CC2 [Example 23, N-(3-cyano-5-(3-fluorobenzyl)-4,5,6,7-tetrahydrothieno[3,2-c]pyridin-2-yl)-2-(1,1-dioxido-2,3-dihydrobenzo[d]isothiazol-5-yl)acetamide]",0.1 to 1,0.1 to 1,< 0.1,0.1 to 1
"COc1cc(S(N)(=O)=O)ccc1CC(=O)Nc1sc2c(c1C#N)CN(Cc1cccc(F)c1)CC2 [Example 24, N-(3-cyano-5-(3-fluorobenzyl)-4,5,6,7-tetrahydrothieno[3,2-c]pyridin-2-yl)-2-(2-methoxy-4-sulfamoylphenyl)acetamide]",0.1 to 1,0.1 to 1,< 0.1,0.1 to 1
"N#Cc1c(NC(=O)Cc2ccc3c(c2)S(=O)(=O)NC3)sc2c1CN(Cc1cccc(F)c1)CC2 [Example 25, N-(3-cyano-5-(3-fluorobenzyl)-4,5,6,7-tetrahydrothieno[3,2-c]pyridin-2-yl)-2-(1,1-dioxido-2,3-dihydrobenzo[d]isothiazol-6-yl)acetamide]",0.1 to 1,< 0.1,< 0.1,< 0.1
"N#Cc1c(NC(=O)Cc2ccc3c(c2)CNC3)sc2c1CN(Cc1cccc(F)c1)CC2 [Example 26, N-(3-cyano-5-(3-fluorobenzyl)-4,5,6,7-tetrahydrothieno[3,2-c]pyridin-2-yl)-2-(isoindolin-5-yl)acetamide]",> 1,> 1,> 1,> 1
"CS(=O)(=O)c1ccc(CC(=O)Nc2sc3c(c2C#N)CN(Cc2cccc(F)c2)CC3)cc1C#N [Example 27, 2-(3-cyano-4-(methylsulfonyl)phenyl)-N-(3-cyano-5-(3-fluorobenzyl)-4,5,6,7-tetrahydrothieno[3,2-c]pyridin-2-yl)acetamide]",0.1 to 1,< 0.1,< 0.1,< 0.1
"CNS(=O)(=O)c1ccccc1CC(=O)Nc1sc2c(c1C#N)CN(Cc1cccc(F)c1)CC2 [Example 28, N-(3-cyano-5-(3-fluorobenzyl)-4,5,6,7-tetrahydrothieno[3,2-c]pyridin-2-yl)-2-(2-(N-methylsulfamoyl)phenyl)acetamide]",0.1 to 1,0.1 to 1,< 0.1,< 0.1
